Assay results from patent US8178688B2, “Benzamidine derivatives, process for the preparation thereof and pharmaceutical composition comprising the same” (Dong Wha Pharmaceutical Co., Ltd., priority 2004, dated 2012).
Read-outs that look alike come from different tables or passages of the source.

How the values were obtained:
ovariectomized ddY mouse = assay: Therapeutic effect in the ovariectomized osteoporetic mouse model (trabecular bone volume of the femur); assay type: in vivo, ddY mice; conditions: 50 mg/kg/day oral gavage for 4 weeks from 4 weeks after ovariectomy, salts (methansulfonic acid or HCl); for change in vivo at 50 mg/kg: Mus musculus, 672 h, read-out: Changes on TBV (% changes vs vehicle control)
Experimental: The therapeutic effects of each benzamidine derivates were evaluated on the ovariectomized ddY mouse. Benzamidine derivates were dosed from 4 weeks after operation for 4 weeks and the changes on the trabecular bone volume (TBV) of the femur were observed via histomorphometry.
Female ddY mice (6-wk old upon receipt, SLC, Japan) were used after acclimatization for 7 days. Animals were allocated 5 per polycarbonate cage in a temperature (20-25° C.) and humidity (30-35%) controlled room. Light:dark cycle was 12 hr:12 hr and feed (Samyang, Korea) and water were supplied free to access.
Salts of benzamidine derivates (Methansulfonic acid or HCl) were used for the test substances of this invention. Test substances are dissolved and/or suspended in injectable distilled water and administered at a dosage volume of 10 ml/kg by oral gavage. All test substances are dosed from 4 weeks after operation for 4 weeks at 50 mg/kg/day.
To induce estrogen-deficient osteoporosis, bilateral ovaries are removed and then closed by routine methods. Operation was conduct under Ketamine hydrochloride and xylazine hydrochloride anesthesia.
The left femur of each mouse were separated at sacrifice, and fixed in 10% neutral buffered formalin (NBF), then decalcified in decalcifying solution (24.4% formic acid, and 0.5N sodium hydroxide) for 5 days (mixed decalcifying solution was exchanges once a day for 5 days). After the dexalcification, the femur was embedded in paraffin, sectioned (3˜4 μm) and stained with hematoxylin-eosin stain.
TBV was calculated using automated image analysis (analySIS Image Processing; SIS, Germany) under magnification of ×200 in the uniform area of trochlea epiphyseal regions (growth plate regions were excluded) of prepared histological specimens. TBV was calculated as percentage (%) levels.
The changes of TBV compared to that of vehicle control are calculated as following Equation 1 to help the understanding of the efficacy of test substances. Percentage changes=[((TBV of a−TBV of b)/TBV of b)×100] Equation 1

[1] = tested on: osteoclast differentiation; assay: Inhibitory effects on osteoclast differentiation (co-culture of bone marrow cells with osteoblast, TRAP staining); assay type: cell-based, mice; conditions: for inhibition at 1 µM: Mus musculus, Osteoclast, 168 h, read-out: % inhibitory activity on osteoclastogenesis
Outline: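 Percent inhibition versus control is based on microscope counts of TRAP-positive osteoclasts (3 or more nuclei) after 7 days of compound exposure. Cultures paired ddY mouse marrow cells with ICR calvarial osteoblasts, driven by dexamethasone 10^−7M plus vitamin D3 10^−8M, with medium and compound changed every 2–3 days.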

cells = assay: Cytotoxicity test (MTT); assay type: cell-based; conditions: 10^−6M, 72 hrs, compared with the control group
Experimental: Cytotoxic effect of benzamidine derivatives was evaluated by the experiment described below.
The test substance was diluted in appropriate solvent at 10^−2M concentration. […] Cells to be used in cytotoxitic test were plated on a 96-well microplate in a dose of 1×10^4 cell/100 μL per well and cultured for 72 hrs. 25 μL of MTT [3-(4,5-dimethyl-2-thiazolyl)-2,5-diphenyl-2H-tetrazolium bromide] dissolved in PBS at 2 mg/mL were added before 4 hrs of the end of culture. After reaction, the plates were centrifuged, medium was decanted and 100 μL of DMSO was added to dissolve formazan. Lastly, the absorbance of developed plates was measured at 540 nm.

[2] = 1 m, co-culture of bone marrow cells and osteoblast, 7 days, TRAP-positive osteoclasts versus controls
[3] = 1 μm, co-culture of bone marrow cells and osteoblast, 7 days, TRAP-positive osteoclasts versus controls

Row | Compound | change in vivo at 50 mg/kg (ovariectomized ddY mouse) [%] | inhibition at 1 µM [1, 2] [%] | Survival rates of the cells (cells; MC3T3-E1 cells) [%] | Survival rates of the cells (cells; ST2 cells) [%] | other results
1 | CCCCc1sc(N(C)Cc2cccnc2)nc1-c1ccc(OCCCCCOc2ccc(C(=N)NO)cc2)cc1 [Example 145, N-hydroxy-4-(5-[4-(5-butyl-2-(methyl-(pyridin-3-yl-methyl)amino)-1,3-thiazol-4-yl)phenoxy]pentoxy)-benzamidine] | 91.7 | 96.2 |  |  | 
2 | Cc1sc(N2CCOCC2)nc1-c1ccc(OCCCCCOc2ccc(C(=N)NO)cc2)cc1 [Example 165, N-hydroxy-4-(5-[4-(5-methyl-2-morpholino-1,3-thiazol-4-yl)phenoxy]pentoxy)-benzamidine] | 37.5 | 66.9 |  |  | 
3 | Cc1nc(-c2ccc(OCCCCCOc3ccc(C(=N)NO)c(F)c3)cc2)c(C(C)C)s1 [Example 187, N-hydroxy-2-fluoro-4-(5-[4-(5-isopropyl-2-methyl-1,3-thiazol-4-yl)-phenoxy]-pentoxy)-benzamidine] | 117 | 92.5 |  |  | 
4 | CCCCc1sc(N(C)C)nc1-c1ccc(OCCCCCOc2ccc(C(=N)NO)cc2)cc1 [Example 152, N-hydroxy-4-(5-[4-(5-butyl-2-dimethylamino-1,3-thiazol-4-yl)phenoxy]pentoxy)-benzamidine] | 71.5 | 83.8 |  |  | 
5 | N=C(NO)c1ccc(OCCCCCOc2ccc(-c3nc(N4CCCCC4)sc3CC3CCCC3)cc2)cc1 [Example 167, N-hydroxy-4-(5-[4-(5-cyclopentylmethyl-2-piperdino-1,3-thiazol-4-yl)phenoxy]pentoxy)-benzamidine] |  |  |  |  | Changes on TBV (% changes vs vehicle control) (ovariectomized ddY mouse): 55.2%; % inhibitory activity on osteoclastogenesis ([1]; co-culture of bone marrow cells and osteoblast, 7 days, TRAP-positive osteoclasts versus controls): 99.0%
6 | Cc1nc(-c2ccc(OCCCCCOc3ccc(C(=N)NO)c(O)c3)cc2)c(C(C)C)s1 [Example 188, 2,N-dihydroxy-4-(5-[4-(5-isopropyl-2-methyl-1,3-thiazol-4-yl)-phenoxy]-pentoxy)-benzamidine] | 92 | 82.6 |  |  | 
7 | CCCNc1nc(-c2ccc(OCCCCCOc3ccc(C(=N)NO)cc3)cc2)c(CC2CCCC2)s1 [Example 111, N-hydroxy-4-(5-[4-(5-cyclopentylmethyl-2-propylamino-1,3-thiazol-4-yl)phenoxy]pentoxy)-benzamidine] | 69.3 | 99.5 |  |  | 
8 | CN(Cc1cccnc1)c1nc(-c2ccc(OCCCCCOc3ccc(C(=N)NO)cc3)cc2)c(CC2CCCC2)s1 [Example 147, N-hydroxy-4-(5-[4-(5-cyclopentylmethyl-2-(methyl-(pyridin-3-yl-methyl)amino)-1,3-thiazol-4-yl)phenoxy]pentoxy)-benzamidine] |  | 81.1 | 100.0 | 42.4 | 
9 | Cc1nc(-c2ccc(OCCCCCOc3ccc(C(=N)NO)cc3)cc2)c(CC2CCCC2)s1 [Example 45, N-hydroxy-4-(5-[4-(5-cyclopentylmethyl-2-methyl-1,3-thiazol-4-yl)phenoxy]pentoxy)-benzamidine] |  |  | 75.9 | 37.0 | inhibition at 1 µM [1, 3]: 97.7%
10 | Cc1nc(-c2ccc(OCCCCCNc3ccc(C(=N)NO)cc3)cc2)c(C(C)C)s1 [Example 177, N-hydroxy-4-(5-[4-(5-isopropyl-2-methyl-1,3-thiazol-4-yl)phenoxy]-pentylamino)-benzamidine] | 88.7 | 96.1 |  |  | 
11 | Cc1nc(-c2ccc(OCC=CCOc3ccc(C(=N)NO)cc3)cc2)c(C(C)C)s1 [Example 184, N-hydroxy-4-(4-[4-(5-isopropyl-2-methyl-1,3-thiazol-4-yl)-phenoxy]-2-butenyloxy)-benzamidine] | 147 | 74.5 |  |  | 
12 | CCc1nc(-c2ccc(OCCCCCOc3ccc(C(=N)NO)cc3)cc2)c(CC2CCCC2)s1 [Example 46, N-hydroxy-4-(5-[4-(5-cyclopentylmethyl-2-ethyl-1,3-thiazol-4-yl)phenoxy]pentoxy)-benzamidine] |  |  | 100.0 | 48.3 | inhibition at 1 µM [1, 3]: 96.9%
13 | N=C(NO)c1ccc(OCCCCCOc2ccc(-c3nc(N)sc3CC3CCCC3)cc2)cc1 [Example 67, N-hydroxy-4-(5-[4-(2-amino-5-cyclopentylmethyl-1,3-thiazol-4-yl)phenoxy]pentoxy)-benzamidine] |  | 81.4 | 68.9 | 40.0 | 
14 | CCc1sc(NC(=O)c2ccncc2)nc1-c1ccc(OCCCCCOc2ccc(C(=N)NO)cc2)cc1 [Example 100, N-hydroxy-4-(5-[4-(5-ethyl-2-(4-pyridylcarbonyl)amino-1,3-thiazol-4-yl)phenoxy]pentoxy)-benzamidine] |  | 63 | 62.8 | 39.1 | 
15 | N=C(NO)c1ccc(OCCCCCOc2ccc(-c3nc(C4CCCCC4)sc3CC3CCCC3)cc2)cc1 [Example 50, N-hydroxy-4-(5-[4-(5-cyclopentylmethyl-2-cyclohexyl-1,3-thiazol-4-yl)phenoxy]pentoxy)-benzamidine] |  |  | 81.0 | 61.0 | inhibition at 1 µM [1]: 79.8%
16 | CCc1sc(N(C)Cc2ccccc2)nc1-c1ccc(OCCCCCOc2ccc(C(=N)NO)cc2)cc1 [Example 133, N-hydroxy-4-(5-[4-(2-(benzyl-methyl-amino)-5-ethyl-1,3-thiazol-4-yl)phenoxy]pentoxy)-benzamidine] |  | 76.6 | 62.6 | 46.4 | 
17 | N=C(NO)c1ccc(OCCCCCOc2ccc(-c3nc(-c4ccccc4)sc3CC3CCCC3)cc2)cc1 [Example 48, N-hydroxy-4-(5-[4-(5-cyclopentylmethyl-2-phenyl-1,3-thiazol-4-yl)phenoxy]pentoxy)-benzamidine] |  |  | 100.0 | 51.2 | inhibition at 1 µM [1, 3]: 72.1%
18 | Cc1sc(NC(=O)c2ccncc2)nc1-c1ccc(OCCCCCOc2ccc(C(=N)NO)cc2)cc1 [Example 91, N-hydroxy-4-(5-[4-(5-methyl-2-(4-pyridylcarbonyl)amino-1,3-thiazol-4-yl)phenoxy]pentoxy)-benzamidine] |  | 92.9 | 41.3 | 20.8 | 
19 | CCNc1nc(-c2ccc(OCCCCCOc3ccc(C(=N)NO)cc3)cc2)c(C)s1 [Example 87, N-hydroxy-4-(5-[4-(2-ethylamino-5-methyl-1,3-thiazol-4-yl)phenoxy]pentoxy)-benzamidine] |  | 58.1 | 97.3 | 49.8 | 
20 | CCc1sc(N(CC)Cc2cccnc2)nc1-c1ccc(OCCCCCOc2ccc(C(=N)NO)cc2)cc1 [Example 136, N-hydroxy-4-(5-[4-(5-ethyl-2-(ethyl-(pyridin-3-yl-methyl)amino)-1,3-thiazol-4-yl)phenoxy]pentoxy)-benzamidine] |  | 49.2 | 48.5 | 29.9 | 
21 | CCCCc1sc(N)nc1-c1ccc(OCCCCCOc2ccc(C(=N)NO)cc2)cc1 [Example 63, N-hydroxy-4-(5-[4-(2-amino-5-butyl-1,3-thiazol-4-yl)phenoxy]pentoxy)-benzamidine] |  | 56.5 | 52.5 | 29.3 | 
22 | Cc1nc(-c2ccc(OCCCN3CCN(CCCOc4ccc(C(=N)NO)cc4)CC3)cc2)c(C(C)C)s1 [Example 181, N-hydroxy-4-(3-[4-(3-(4-(5-isopropyl-2-methyl-1,3-thiazol-4-yl)-phenoxy)-propyl)-piperazin-1-yl]-propoxy)-benzamidine] |  | 54.1 | 99.5 | 36.7 | 
